This note sets out measurements from publication PMC11784013, “Potassium molybdate blocks APN-dependent coronavirus entry by degrading receptor via PIK3C3-mediated autophagy” (Journal of Virology, 2024).

In assay [1] the test system is APN. Kind of assay: Pathway inhibitor screen on PM-induced APN degradation in ST cells (western blot). Format: cell-based, porcine. The conditions noted are these: PM 10 mM, 16 h, 3-MA 20 mM. The protocol:
Fig 6 PM degrades APN by autophagy-lysosome pathway. (A) ST cells were treated with PM (10 mM) and infected with TGEV (0.1 MOI) in the presence and absence of MG132 (20 µM), 3-MA (20 mM), and Z-VAD-FMK (20 µM) for 16 h. The APN expression and TGEV N were detected by western blot. (B) ST cells were treated with PM (10 mM) at 2, 4, 8, and 16 h, autophagy markers P62 and LC3, and APN were measured by western blot. (C) ST cells were transfected with RFP-EGFP-LC3B for 12 h and then treated with PM (10 mM) or H2O for 36 h. The fluorescence of GFP and RFP was detected by confocal microscopy, scale bar: 5 µm. (D) Quantification of autophagosomes (Merge) and autolysosomes (RFP) from C using Image J software. (E) ST cells were treated with PM or H2O for 24 h. The autophagosomes (yellow arrow) and autolysosomes (asterisk) were detected by transmission electron microscope, scale bar: 2 µm. (F) The number of autophagosomes (yellow arrow) and autolysosomes (asterisk) was quantified. All western blot results were calculated by Image J. Results are presented as mean ± SD of data from three independent experiments. ***, P ≤ 0.001.
Fig 7 PM degrades APN expression via activating PIK3C3-mediated autophagy. (A) Graphical representation for autophagy and the targets of different autophagy inhibitors. (B) ST cells were treated with PM (10 mM) in the presence and absence of 3-MA (20 mM), SBI0206965 (20 µM), and 3BDO (30 µM) for 16 h, and the APN expression was detected by western blot. (C) ST cells were treated with PM (10 mM) in the presence and absence of 3-MA (20 mM) for 16 h, and the APN, PIK3C3, ATG14, BECN1, P62, and LC3 were measured by western blot. (D) ST cells were transfected with PIK3C3 siRNA-1, PIK3C3 siRNA-2, PIK3C3 siRNA-3, PIK3C3 siRNA-4, and NC siRNA for 24 h, the PIK3C3 expression was detected by western blot. (E) ST cells were transfected with PIK3C3 siRNA-4 or NC siRNA for 24 h and then treated with PM (10 mM) for 16 h. The APN, PIK3C3, ATG14, BECN1, P62, and LC3 were detected by western blot. (F) Sequencing diagram for WT ST cells and PIK3C3 KO ST cells. (G) PIK3C3 was detected by western blot in WT ST cells and PIK3C3 KO ST cells. (H) WT ST cells and PIK3C3 KO ST cells were treated with PM (10 mM) for 16 h and then the APN, PIK3C3, ATG14, BECN1, P62, and LC3 were detected by western blot. (I) WT ST cells and PIK3C3 KO ST cells were transfected with pCMV-Myc and pCMV-Myc-PIK3C3, respectively, for 24 h and treated with PM (10 mM) for 16 h. The APN, PIK3C3, P62, and LC3 were detected by western blot. All western blot results were calculated by Image J. All experiments were performed in triplicate.
(Immunoblotting shows a protein as a band on a membrane.)

Assay [2] relates to TGEV Miller. Kind of assay: TGEV infection of ST cells (RT-qPCR, TCID50, western blot, IFA). The class given is cell-based, transmissible gastroenteritis virus. The conditions noted are these: TGEV Miller 0.1 MOI, indicated concentrations, 1 h pretreatment and 17 h. As for the experimental part:
Fig 1 PM inhibits TGEV and PRCV infection in ST cells. (A) A cytotoxicity assay of PM in ST cells. ST cells cultured in a 96-well plate were incubated with different concentrations of PM for 24 h, which was tested by Cell Counting Kit 8. (B) Time course for PM inhibiting TGEV or PRCV or PEDV infection assay. (C–F) The ST cells, pretreated with PM at the indicated concentrations for 1 h were infected with TGEV Miller (0.1 MOI) or PRCV (0.1 MOI) for 1 h and were again treated with PM at 37°C for 17 h. The cell samples were collected and examined by real-time quantitative PCR (RT-qPCR), TCID50, western blot (C and D), and immunofluorescence assay (IFA) (E and F), scale bar: 50 µm. (G) Vero-E6 cells were treated with indicated PM and infected with PEDV LJX 01/2014 according to the time course of Fig. 1B, which was detected by TCID50 and western blot. Results are presented as mean ± SD of data from three independent experiments. ns, no significant; **, P ≤ 0.01; ***, P ≤ 0.001.
Fig 3 PM inhibits TGEV and PRCV infection by potassium ion and molybdate synergy. […] The cell samples were measured by RT-qPCR. (C and D) ST cells were treated with PM (K2MoO4, 10 mM), KCl (20 mM), Na2MoO4 (10 mM), sodium chloride (NaCl, 10 mM), K2MoO4 (10 mM), and NaCl (20 mM) as well as Na2MoO4 (10 mM) and KCl (20 mM) for 1 h and then infected with TGEV Miller (0.1 MOI) or PRCV (0.1 MOI) for 17 h, which was determined by RT-qPCR and TCID50. […]
Total RNA was extracted using RNAiso reagent (TaKaRa, Japan, 9109) and reverse transcribed into cDNA using HiScript Q RT SuperMix for qPCR (Vazyme, China, R223-01), both of which followed the manufacturer’s recommendations. The TGEV and PRCV virus copy numbers were detected by the TaqMan probe-based RT-qPCR method developed previously in our laboratory ([59]). Relative qPCR was also performed using ChamQ SYBR qPCR master mix (Vazyme, China, Q311-02), and the results were calculated via the 2^-ΔΔCT method.
For orientation: Real-time PCR tracks product formation cycle by cycle.

The mark [3] stands for this setting: no virus, SBI0206965 20 µM, 3BDO 30 µM.

In the case of `O=C1OC(COc2ccccc2[N+](=O)[O-])CC1Cc1ccccc1` (stereo not drawn) [3BDO], the “reversal of PM-induced APN degradation” value in assay [1] (setting [3]) was “cannot abolish the degradation of APN”.

On to `[Cl-].[K+]` [potassium chloride], for which the “TGEV infection, single salt” value in assay [2] was “neither potassium chloride nor sodium molybdate was able to suppress TGEV infection”.

As to `Cn1cnc(N)c2ncnc1-2` [3-MA, 3-Methyladenine], the “reversal of PM-induced APN degradation” value in assay [1] (setting [3]) is given as “reversed the changes in APN expression”; in assay [1] (TGEV 0.1 MOI, MG132 20 µM, Z-VAD-FMK 20 µM), “reversed”.

For `CNC(=O)c1ccccc1Oc1nc(Nc2cc(OC)c(OC)c(OC)c2)ncc1Br` [SBI0206965], in assay [1] (setting [3]), the “reversal of PM-induced APN degradation” value is given as “cannot abolish the degradation of APN”.

Consider `[Na+].[Na+].[O]=[Mo](=[O])([O-])[O-]` [sodium molybdate], for which the “TGEV infection, single salt” value in assay [2] is “neither potassium chloride nor sodium molybdate was able to suppress TGEV infection”.
